Measured values published in EP3683219A1, “COMPOUND INHIBITING BUTYRYLCHOLINESTERASE” (Julius-Maximilians-Universität Würzburg, priority 2019, dated 2020).
Where two headings read alike, the source gives them in different places.

How the values were obtained:
hBChE [1] = biological target: T1, hBChE (Homo sapiens, UniProt P06276); experiment: Decarbamoylation from hBChE, dilution experiments (recovery of enzyme activity, k4); type: biochemical; conditions: decarbamoylation rate, after 1 h incubation and 1:1000 dilution
Procedure: To further investigate the presence and nature of a peripheral binding site, also the hydrolysis of carbamate and the resulting release of the inhibitor from the enzyme was investigated by measuring the time dependent recovery of enzyme activity. To measure the decarbamoylation rate k4, dilution experiments were performed with hBChE following the procedure described in Sawatzky, E. et al., ChemMedChem 2016, 11, 1540-1550 and in Bartolucci, C. et al., Biochem. J. 2012, 444, 269-277. A high concentration of enzyme and inhibitor where incubated for 1 h. The concentration of inhibitor was chosen, such that > 85% of hBChE was inhibited through carbamate transfer. Then the mixture was diluted with buffer 1:1000 to a concentration at which the enzyme is not further carbamoylated. Due to the hydrolysis and release of the carbamate from the catalytic active serine enzyme activity was recovered slowly. This regeneration of the enzyme was monitored at different time points after the dilution. […] A = (1−e^(k4 ⋅t))⋅(1−A0) + A0 [formula] Table 4. Kinetic values for decarbamoylation from hBChE of selected compounds

hAChE = hAChE (Homo sapiens, UniProt P22303); experiment: Ellman's colorimetric assay, inhibition of hAChE; type: biochemical; conditions: for IC50 / plC50 ± SEM (hAChE): enzyme activity measured after 20 min incubation; for inhibition at 25 µM / inhibition at 100 µM: read-out: inhibition of hAChE
Procedure: (§1) For evaluation of enzyme inhibition, Ellman's colorimetric assay was conducted as described in Ellman, G. L., Arch. Biochem. Biophys 1958, 74, 443-450 and Ellman, G. L. et al., Biochem. Pharmacol. 1961, 7, 88-95. Therefor, 5,5'-dithiobis-(2-nitrobenzoic acid) (DTNB) solution, respective Cholinesterase (ChE) and inhibitor were incubated together and enzyme activity was measured after 20 min. The long incubation time was needed to allow the carbamate transfer between ChE and inhibitor.
(§2) The carbamate residue was altered systematically by changing residues in the terminal position of carbamate moiety and different flexible alkylene linkers were introduced. […] Nevertheless, it must be noted that IC50 values only serve as a first indicator of inhibitor affinity and selectivity. Due to the chemical reaction of carbamate transfer the enzyme inhibition is strongly time dependent. […]

hBChE [2] = biological target: T1, hBChE; experiment: biochemical; type: biochemical; conditions: for fold lower activity than heptyl carbamate 7 (IC50 hBChE): compared with compound 7; for Selectivity index (IC50 hAChE/IC50 hBChE): hAChE over hBChE; for IC50 values (hBChE), in words: linker of 4 methylene groups
Procedure: as §1, §2

[3] = tested on: Aβ25-35-induced passive avoidance impairments; experiment: Step-through passive avoidance test, Aβ25-35-injected mice; type: in vivo, male Swiss mice; conditions: 0.3-3 mg/kg ip o.d. day 1 to 7; retention day 10
[4] = tested on: Aβ25-35-induced spontaneous alternation deficits; experiment: Spontaneous alternation test in the Y-maze, Aβ25-35-injected mice; type: in vivo, male Swiss mice; conditions: 0.3-3 mg/kg ip o.d. day 1 to 7; Y-maze day 8
Procedure: 2013, 38, pages 1706-1723.
AD-like cognitive dysfunctions were induced in male Swiss mice, 6 weeks old, weighing 31-36 g by intracerebroventricular (icv) injection of the oligomerized Aβ25-35 peptide into the mouse brain on day 1.
Compounds were weighed, dissolved in pure DMSO at a concentration of 1 mg/ml and diluted into final test concentrations with saline. The final percentage of DMSO in saline was 60% for all compounds. Vehicle solution used for control groups was 60% DMSO in saline. Compounds were injected intraperitoneally (ip) from day 1 to 7 and behavioral studies were conducted between day 8 and 10. Spatial working memory was evaluated using a spontaneous alternation test in a Y-maze on day 8. The Y-maze is made of grey polyvinylchloride. Each arm is 40 cm long, 13 cm high, 3 cm wide at the bottom, 10 cm wide at the top, and converging at an equal angle. Each mouse is placed at the end of one arm and allowed to explore the maze freely for 8 min. The sequence of arm entries (including possible returns into the same arm) was checked visually and noted down. If the mouse enters all three arms on consecutive occasion, this is defined as an alternation. Therefore, the total number of arm entries minus two is also the maximum number of alternations. The percentage of alternation was calculated as (actual alternations / maximum alternations) x 100. Parameters for the evaluation of behavior are given as the percentage of alternation (memory index) and a total number of arm entries (exploration index).
Figs. 7a-h show the effect of the compounds on Aβ25-35-induced spontaneous alternation deficits in mice. […] Figs. 7a, c, e, g: spontaneous alternation performance; Figs. 7b, d, f, h: number of arm entries in the Y-maze test performed at day 8.

hBChE [5] = biological target: T1, hBChE; experiment: Carbamoylation kinetics on hBChE (time-dependent inhibition, Kc and k3); type: biochemical; conditions: for k3 [min^-1] hBChE: carbamoylation rate constant; for Kd: carbamoylation, pre-equilibrium constant
Source text: As carbamate based inhibitors (C-X) show a pseudo irreversible manner of binding, the IC50 values must be seen critically because two chemical reactions determine them: Carbamate (C) transfer onto the enzyme (E) and carbamate hydrolysis. So, the Kc values, k3 and k4 rate constants according to below formula were investigated for some representative compounds (c.f. Fig. 3 and Fig. 4). [formula]
The mechanism of enzyme inhibition can be divided into three steps: In a pre-equilibrium, the carbamate based inhibitor C-X is bound to the enzyme E and a complex (EC-X) is formed reversible and can be characterized with Kc. Then the carbamate C is transferred onto the enzyme E and binds covalently to form E-C with the rate constant k3 while carrier scaffold X is released. Then E-C is hydrolyzed and enzyme activity is recovered and the amine C' is released with the rate constant k4, also called decarbamoylation rate.
For the determination of Kc and k3 a similar experimental setup was used compared to the evaluation of IC50 values, whereas enzyme activity was measured at various time points after addition of inhibitor.
A = A0 ⋅e^(−kobs ⋅t) + A∞ [formula]
Plotting the enzyme activity (in %) against the incubation times, lead to nonlinear time-dependent inhibition curves for the respective inhibitor concentrations whereby kobs can be determined with an exponential fit correspondent to equation (I).
Furthermore, a hyperbolic curve is obtained, plotting the rate constant kobs against the inhibitor concentration [I], which is described by equation (II), with the substrate concentration [S] and the Michaelis-Menten constant KM. kobs = (k3 ⋅[I])/(KC ⋅(1+([S])/(KM)) + [I]) [formula]
This equation (II) can be rearranged to the reciprocal of kobs, to get a linear plot: (1)/(kobs) = (KC ⋅(1+([S])/(KM)))/(k3)⋅(1)/([I]) + (1)/(k3) [formula]
Since the substrate butyrylthiocholine iodide is not added directly to the enzyme and the inhibitor, but after the incubation of enzyme with inhibitor, [S] can be set to zero, leading to Michaelis-Menten like equation IV. (1)/(kobs) = (KC)/(k3)⋅(1)/([I]) + (1)/(k3) [formula]
Relating to the linear equation (IV), KC can be established from the slope and carbamoylation rate constant k3 from the y-intercept.
As a chemical reaction is taking place, Kc must be seen as a 'real' measure for quantification of enzyme inhibitor interactions. Due to the high costs in measurements on hBChE only some representative compounds were chosen to evaluate also in kinetic studies based on the results from IC50 measurements (table 3). Table 3. Kinetic values for carbamoylation on hBChE for selected representative compounds

[6] = enzyme activity measured after 20 min incubation
[7] = enzyme activity measured after 20 min incubation, read-out: IC50 hBChE

Chain of hAChE (P22303 32-614): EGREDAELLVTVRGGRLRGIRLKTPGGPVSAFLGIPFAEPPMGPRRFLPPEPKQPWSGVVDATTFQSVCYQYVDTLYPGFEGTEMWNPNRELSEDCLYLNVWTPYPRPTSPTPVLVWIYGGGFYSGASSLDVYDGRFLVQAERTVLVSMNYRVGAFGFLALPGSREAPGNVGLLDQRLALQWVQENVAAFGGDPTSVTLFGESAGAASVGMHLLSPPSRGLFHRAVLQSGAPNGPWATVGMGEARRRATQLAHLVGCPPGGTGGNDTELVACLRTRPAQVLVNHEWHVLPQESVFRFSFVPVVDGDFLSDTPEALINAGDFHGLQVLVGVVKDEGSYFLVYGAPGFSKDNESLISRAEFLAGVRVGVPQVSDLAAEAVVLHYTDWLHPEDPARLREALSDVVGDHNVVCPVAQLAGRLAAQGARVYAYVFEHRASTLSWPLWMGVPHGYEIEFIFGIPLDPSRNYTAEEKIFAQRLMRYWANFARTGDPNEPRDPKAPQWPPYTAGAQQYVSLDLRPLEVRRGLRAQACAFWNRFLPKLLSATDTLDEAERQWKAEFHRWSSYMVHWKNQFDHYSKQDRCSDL
T1 sequence (P06276 29-602): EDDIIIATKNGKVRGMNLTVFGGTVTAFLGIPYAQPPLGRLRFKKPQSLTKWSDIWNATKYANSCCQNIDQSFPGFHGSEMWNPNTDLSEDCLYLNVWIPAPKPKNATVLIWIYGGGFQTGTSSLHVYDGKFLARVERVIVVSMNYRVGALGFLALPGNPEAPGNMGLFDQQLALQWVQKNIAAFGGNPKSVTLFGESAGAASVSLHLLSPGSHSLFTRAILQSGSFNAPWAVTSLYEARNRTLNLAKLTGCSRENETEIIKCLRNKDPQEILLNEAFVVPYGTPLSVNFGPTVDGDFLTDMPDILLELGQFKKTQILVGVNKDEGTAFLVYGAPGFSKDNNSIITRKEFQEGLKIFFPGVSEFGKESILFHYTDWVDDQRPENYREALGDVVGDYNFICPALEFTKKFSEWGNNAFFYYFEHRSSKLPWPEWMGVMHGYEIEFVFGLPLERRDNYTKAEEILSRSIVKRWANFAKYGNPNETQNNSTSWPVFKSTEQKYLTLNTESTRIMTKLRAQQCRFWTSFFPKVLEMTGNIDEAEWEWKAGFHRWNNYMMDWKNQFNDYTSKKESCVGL

Compound | k4 (hBChE [1]) [h⁻¹] | plC50 ± SEM (hBChE) (hBChE [2]; [6]) | IC50 (hBChE [2]; [7]) [nM] | Selectivity index (IC50 hAChE/IC50 hBChE) (hBChE [2]) | k3 [min^-1] hBChE (hBChE [5]) [min⁻¹] | Kd (hBChE [5]) [nM] | other results
CN1c2ccc(OC(=O)NCCCCCCN3CCCCC3)cc2CN2CCc3ccccc3C21 (stereo not shown) [Compound 19p] | 0.129 ± 0.006 | 7.08 ± 0.04 | 83.7 | 14 |  |  | IC50 (hAChE): 1200 nM; plC50 ± SEM (hAChE) (hAChE): 5.91 ± 0.03; fold lower activity than heptyl carbamate 7 (IC50 hBChE) (hBChE [2]): approximately 10 fold
CN1c2ccc(O)cc2CN2CCc3ccccc3C21 (stereo not shown) [Compound 13, reference compound] |  |  |  |  |  |  | effect on Aβ25-35-induced passive avoidance deficits (step-through latency, retention) [3]: not active; effect on Aβ25-35-induced spontaneous alternation deficits [4]: not active; BChE inhibition, in words (hBChE [2]): lacking BChE inhibition
CN1c2ccc(OC(=O)NCCCCCCN3CCN(C(=O)OC(C)(C)C)CC3)cc2CN2CCc3ccccc3C21 (stereo not shown) [Compound 19q] |  |  | 123 | >100 | 0.70 ± 0.31 | 1550 ± 827 | inhibition at 25 µM (hAChE): 15%; IC50 (hBChE [2]): 794 nM
CN1c2ccc(OC(=O)NCCCCCCn3cnc4ccccc43)cc2CN2CCc3ccccc3C21 (stereo not shown) [Compound 19m] | 0.45 ± 0.04 | 8.13 ± 0.04 | 7.4 | >1000 | 0.26 ± 0.09 | 7.7 ± 4.6 | Kc values (hBChE), in words (hBChE [5]): one-digit nanomolar range; inhibition at 25 µM (hAChE; 25 µM): 44%
CN1c2ccc(OC(=O)NCCN3CCOCC3)cc2CN2CCc3ccccc3C21 (stereo not shown) [Compound 19a] |  | 5.11 ± 0.04 | 7770 | >10 |  |  | inhibition at 100 µM (hAChE; 100 µM): 17%
CN1c2ccc(OC(=O)NCCCCCCCCCCN3CCOCC3)cc2CN2CCc3ccccc3C21 (stereo not shown) [Compound 19f] |  | 7.94 ± 0.07 | 11.5 | >1000 |  |  | inhibition at 100 µM (hAChE; 100 µM): 25%
CN1c2ccc(OC(=O)NCCCCN3CCc4ccccc4C3)cc2CN2CCc3ccccc3C21 (stereo not shown) [Compound 19i] | 0.028 ± 0.001 | 6.72 ± 0.06 | 192 | >100 |  |  | inhibition at 10 µM (hAChE): 16%; IC50 values (hBChE), in words (hBChE [2]): two-digit nanomolar
CN1c2ccc(OC(=O)NCCCCCCN3CCNCC3)cc2CN2CCc3ccccc3C21 (stereo not shown) [Compound 19r] | 1.44 ± 0.07 | 7.09 ± 0.03 | 80.6 | >100 | 0.32 ± 0.13 | 121 ± 116 | inhibition at 25 µM (hAChE; 25 µM): 16%
CN1c2ccc(OC(=O)NCCCCCCn3ccnc3)cc2CN2CCc3ccccc3C21 (stereo not shown) [Compound 19n] | 0.82 ± 0.03 | 7.88 ± 0.06 | 13.3 | >1000 | 0.31 ± 0.15 | 13.1 ± 14.4 | Kc values (hBChE), in words (hBChE [5]): one-digit nanomolar range; inhibition at 25 µM (hAChE; 25 µM): 18%
CN1c2ccc(OC(=O)NCCCN3CCc4ccccc4C3)cc2CN2CCc3ccccc3C21 (stereo not shown) [Compound 19h] |  | 5.94 ± 0.05 | 1160 | >10 |  |  | inhibition at 10 µM (hAChE): 12%
CN1c2ccc(OC(=O)NCCCCCCN3CCCC3)cc2CN2CCc3ccccc3C21 (stereo not shown) [Compound 19o] | 0.98 ± 0.04 |  | 34.3 | 26 |  |  | IC50 (hAChE): 880 nM; plC50 ± SEM (hAChE) (hAChE): 6.06 ± 0.03; IC50 (hBChE [2]): 339 nM; fold lower activity than heptyl carbamate 7 (IC50 hBChE) (hBChE [2]): approximately 10 fold
CN1c2ccc(OC(=O)NCCCCCCCCCCN3CCc4ccccc4C3)cc2CN2CCc3ccccc3C21 (stereo not shown) [Compound 19l] |  | 7.38 ±0.04 | 41.8 | >1000 | 0.25 ± 0.04 | 5.68 ± 2.19 | Kc values (hBChE), in words (hBChE [5]): one-digit nanomolar range; inhibition at 10 µM (hAChE): 15%
CN1c2ccc(OC(=O)NCCN3CCc4ccccc4C3)cc2CN2CCc3ccccc3C21 (stereo not shown) [Compound 19g] |  | 5.76 ± 0.05 | 1720 | >10 | >20 | > 200000 | inhibition at 10 µM (hAChE): 10%
CN1c2ccc(OC(=O)NCCCCN3CCOCC3)cc2CN2CCc3ccccc3C21 (stereo not shown) [Compound 19c] | 0.48 ± 0.06 | 7.30 ± 0.02 | 50.6 | >1000 |  |  | inhibition at 100 µM (hAChE; 100 µM): 13%; IC50 values (hBChE), in words (hBChE [2]): two-digit nanomolar
CN1c2ccc(OC(=O)NCCCCCCCCN3CCc4ccccc4C3)cc2CN2CCc3ccccc3C21 (stereo not shown) [Compound 19k] | 0.83 ± 0.06 | 7.49 ± 0.03 | 32.6 | >1000 |  |  | inhibition at 10 µM (hAChE): 11%
CN1c2ccc(OC(=O)NCCCN3CCOCC3)cc2CN2CCc3ccccc3C21 (stereo not shown) [Compound 19b] |  | 6.03 ± 0.02 | 938 | >100 |  |  | inhibition at 100 µM (hAChE; 100 µM): 13%
CN1c2ccc(OC(=O)NCCCCCCCCN3CCOCC3)cc2CN2CCc3ccccc3C21 (stereo not shown) [Compound 19e] | 1.58 ± 0.15 |  | 19.8 | >1000 |  |  | inhibition at 100 µM (hAChE): 22%; IC50 (hBChE [2]): 85.1 nM
